Assay results published in patent publication US6599747B1, “Soil test” (University of Lancaster, priority 1998, dated 2003).

Assay: Extraction of soil-associated 14C-9-phenanthrene with aqueous HPCD solution
Format: physicochemical
Settings: for Concentration Extracted into HPCD Solution: 20 h
Experimental: A sample was “spiked” with 10 mg kg^−1 14C-9phenanthrene. Samples of the soil (1.25 g) were then extracted for 20 hours (sufficient time for extraction of the rapidly i.e. non-kinetically restrained fraction of compounds to be exchanged—see Example 2) with increasing concentration solutions (25 ml) of HPCD in water. The amount of activity exchanged into the HPCD solution was measured as was the total activity present. The results are shown in Table 1 in which the activity units are dpm g^−1 soil (where dpm stands for disintegrations per minute).
The above extraction was repeated but using an HPCD solution having a concentration of 50 mM. However the extraction was terminated after 3, 6, 12, 18, 24 and 40 hours. The results are shown in Table 2 in which the activity units are dpm […] soil (where dpm stands for disintegration per minute).
Soil was “spiked” to concentrations of 25 and 50 mg kg^−1. The above extraction was repeated but using a HPCD solution having a concentration of 50 mM. Soil samples were aged for 1, 42 and 84 d prior to extraction. An extraction time of 20 h was used as before (Example 1 and 2 ). The biodegradability of the soil associated ^14C-9-phenanthrene was assessed using respirometry. Respirometers consisted of Erlyn,eyer flasks (250 mL), to which soil (10 g) and water (30 mL) were added. The flasks were innoculated (10^7-10^8 g^−1 soil) with a catabolocally active microbial culture. The sealed flasks were shaken and the carbon dioxide evolved from the biodegration of the phenanthrene trapped in potassium hydroxide (1 M, 1 mL.) Mineralisation was measured until it platcauted (240 h).

[1] = HPCD 0 mM, 20 h extraction, soil spiked 10 mg kg^−1
[2] = HPCD 5 mM, 20 h extraction, soil spiked 10 mg kg^−1
[3] = HPCD 10 mM, 20 h extraction, soil spiked 10 mg kg^−1
[4] = HPCD 20 mM, 20 h extraction, soil spiked 10 mg kg^−1
[5] = HPCD 40 mM, 20 h extraction, soil spiked 10 mg kg^−1
[6] = HPCD 50 mM, 20 h extraction, soil spiked 10 mg kg^−1
[7] = HPCD 60 mM, 20 h extraction, soil spiked 10 mg kg^−1

- HPCD solution concentration giving maximum extraction (20 h extraction, soil spiked 10 mg kg^−1): 40 mM
- % Exchangeable with HPCD solution [1]: 2.79%
- Activity Exchanged into HPCD Solution [1]: 86.96 dpm g^−1 soil
- % Exchangeable with HPCD solution [2]: 38.06%
- Activity Exchanged into HPCD Solution [2]: 1186.25 dpm g^−1 soil
- % Exchangeable with HPCD solution [3]: 45.88%
- Activity Exchanged into HPCD Solution [3]: 1429.98 dpm g^−1 soil
- % Exchangeable with HPCD solution [4]: 57.51%
- Activity Exchanged into HPCD Solution [4]: 1792.47 dpm g^−1 soil
- % Exchangeable with HPCD solution [5]: 71.63%
- Activity Exchanged into HPCD Solution [5]: 2232.56 dpm g^−1 soil
- extraction time after which the rapidly (non-kinetically restrained) fraction was extracted (HPCD 50 mM): 6 h
- % Exchangeable with HPCD solution [6]: 64.33%
- Activity Exchanged into HPCD Solution [6]: 2005.03 dpm g^−1 soil
- % Exchangeable with HPCD solution (HPCD 50 mM, extraction time 0 h): 0.0%
- % Exchangeable with HPCD solution (HPCD 50 mM, extraction time 3 h): 64.2%
- % Exchangeable with HPCD solution (HPCD 50 mM, extraction time 6 h): 73.4%
- % Exchangeable with HPCD solution (HPCD 50 mM, extraction time 12 h): 72.8%
- % Exchangeable with HPCD solution (HPCD 50 mM, extraction time 18 h): 74.5%
- % Exchangeable with HPCD solution (HPCD 50 mM, extraction time 24 h): 76.8%
- % Exchangeable with HPCD solution (HPCD 50 mM, extraction time 40 h): 75.6%
- % Exchangeable with HPCD solution [7]: 69.74%
- Activity Exchanged into HPCD Solution [7]: 2173.65 dpm g^−1 soil
- Concentration Extracted into HPCD Solution (soil spiked 25 mg/kg^−1, aged 1 d, HPCD 50 mM): 19.5 mg/kg^−1
- Concentration Extracted into HPCD Solution (soil spiked 25 mg/kg^−1, aged 42 d, HPCD 50 mM): 17.6 mg/kg^−1
- Concentration Extracted into HPCD Solution (soil spiked 25 mg/kg^−1, aged 84 d, HPCD 50 mM): 15.5 mg/kg^−1
- Concentration Extracted into HPCD Solution (soil spiked 50 mg/kg^−1, aged 1 d, HPCD 50 mM): 29.9 mg/kg^−1
- Concentration Extracted into HPCD Solution (soil spiked 50 mg/kg^−1, aged 42 d, HPCD 50 mM): 15.4 mg/kg^−1
- Concentration Extracted into HPCD Solution (soil spiked 50 mg/kg^−1, aged 84 d, HPCD 50 mM): 1.0 mg/kg^−1
Compound: c1ccc2c(c1)ccc1ccccc12 [phenanthrene]
